Patent US20020086065A1, “Methods and compositions for the benefit of those suffering from polycystic ovary syndrome with chromium complexes” (priority 2000, published 2002)

Legend:
women with PCOS = conditions: 14 women with PCOS, metformin 850 mg three times a day for 12 weeks; cited from earlier work
[1] = tested on: subject presenting with PCOS; experiment: Example: oral chromium picolinate/picolinic acid tablet in a subject presenting with PCOS; assay type: in vivo; conditions: daily dose of 1,000 μg of chromium
Description: A subject presenting with PCOS is identified. The subject is orally administered a tablet comprising chromium picolinate and picolinic acid at a ratio of 1:10 w/w at a daily dose of 1,000 μg of chromium. The tablet additionally comprises guaifenesin and ibuprofen in a pharmaceutically effective dose. Over the course of several weeks, a decrease in body mass and improved lipid profile is observed. The chromic picolinate sensitizes the subject's insulin and the symptoms of PCOS are reduced.

[2] = rats, oral CrCl3 with the NSAID; cited from earlier work

## CN(C)C(=N)N=C(N)N [metformin]
Women with PCOS
  17-hydroxy progesterone level: unchanged
  Body mass index (BMI): unchanged
  DHEAS level: unchanged
  Free testosterone level: unchanged
  androstenedione level: unchanged
  estradiol level: unchanged
  follicle-stimulating hormone (FSH) level: unchanged
  insulin secretion: not improved
  progesterone level: unchanged
  stimulated LH level: unchanged

## chromic picolinate
[1]
  effect on the subject's insulin: sensitizes

## CC(=O)Oc1ccccc1C(=O)O [aspirin]
[2]
  Chromium absorption following oral administration of CrCl3: facilitated
